From paper PMC3433420 (PLoS ONE, 2012)
Residues, ends and D or L forms follow the SMILES beside them.

What was measured:
SH2 and PTB domains [1] = target: T1, SH2 and PTB domains (Homo sapiens, UniProt O60880); test: In-house protein microarrays (with or without 5 mM DTT), protein named per line; type: binding; details: protein SH2D1A
T1 construct: thioredoxin; made in house; host or cells: BL21(DE3)pLysS E. coli
T1 sequence (O60880 1-128): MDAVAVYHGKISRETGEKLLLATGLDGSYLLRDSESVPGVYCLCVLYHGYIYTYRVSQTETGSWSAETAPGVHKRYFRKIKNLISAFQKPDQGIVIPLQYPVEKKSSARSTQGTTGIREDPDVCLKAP
Method in brief: (§1)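 Recombinant domains (~40 µM) spotted in duplicate on aldehyde slides, quenched 1 h at room temperature in HEPES/KCl/Tween-20 buffer pH 7.8 with 5 mM DTT and 1% BSA, then probed with rhodamine-labeled peptide. Thioredoxin-subtracted mean fluorescence fitted for KD.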

[2] = target: T2, PIK3R1-NC tandem SH2 domains (Homo sapiens, UniProt P27986); test: FP saturation binding assay; details: high-confidence ErbB interactions
T2 construct: the tandem protein was included in our analysis with all internal amino acids linking the domains; 6X His; thioredoxin; made in house; host or cells: E. coli BL21(DE3)pLysS
Method in brief: (§2)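 Rhodamine-labeled phosphopeptides (10 nM final) titrated with SH2 domain protein (0.002–10 µM, 12 points) in 20 mM HEPES, 100 mM KCl, 0.1% Tween-20, 5 mM DTT, pH 7.8; 20 min, room temperature, dark. FP read at 530/555 nm; KD fitted by nonlinear regression after thioredoxin background correction and outlier removal.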

VAV3 SH2 domain = target: T3, VAV3 SH2 domain (Homo sapiens, UniProt Q9UKW4); test: FP saturation binding assay; details: protein VAV3, high-confidence ErbB interactions, mean of replicate hits
T3 construct: 6X His; thioredoxin; made in house; host or cells: BL21(DE3)pLysS E. coli
Method in brief: as §2

SH2 and PTB domains [3] = target: T4, SH2 and PTB domains (Homo sapiens, UniProt Q92569); test: In-house protein microarrays (with or without 5 mM DTT), protein named per line; type: binding
T4 construct: thioredoxin; made in house; host or cells: BL21(DE3)pLysS E. coli
Method in brief: as §1

PIK3R3-C SH2 domain = target: T5, PIK3R3-C SH2 domain (Homo sapiens, UniProt Q92569); test: biochemical; type: binding; details: high-confidence ErbB interactions
T5 construct: thioredoxin; made in house; host or cells: E. coli BL21(DE3)pLysS

[4] = PM assay replicate # 39307, array fabrication # 39286
[5] = protein PIK3R3-NC, PM assay replicate # 39337, array fabrication # 39329

T3 sequence (Q9UKW4 672-766 limits assumed): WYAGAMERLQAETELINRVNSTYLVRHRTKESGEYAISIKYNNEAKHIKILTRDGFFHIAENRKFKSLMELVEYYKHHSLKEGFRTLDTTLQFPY
T2 sequence (P27986 333-718 limits assumed): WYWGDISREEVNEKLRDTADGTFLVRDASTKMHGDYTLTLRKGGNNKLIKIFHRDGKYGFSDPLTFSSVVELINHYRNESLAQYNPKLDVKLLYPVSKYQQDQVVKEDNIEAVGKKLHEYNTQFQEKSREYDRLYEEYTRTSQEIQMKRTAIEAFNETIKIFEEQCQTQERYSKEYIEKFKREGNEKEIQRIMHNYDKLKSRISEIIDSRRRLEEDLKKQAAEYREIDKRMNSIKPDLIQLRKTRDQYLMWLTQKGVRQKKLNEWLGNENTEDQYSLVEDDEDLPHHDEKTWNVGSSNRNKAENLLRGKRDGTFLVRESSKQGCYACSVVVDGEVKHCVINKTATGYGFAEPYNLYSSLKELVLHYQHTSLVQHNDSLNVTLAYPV

## CC(C)C[C@H](NC(=O)[C@@H]1CCCN1)C(=O)N[C@@H](CCC(N)=O)C(=O)N[C@@H](CCCNC(=N)N)C(=O)N[C@@H](Cc1ccc(OP(=O)(O)O)cc1)C(=O)N[C@@H](CO)C(=O)N[C@@H](CCC(=O)O)C(=O)N[C@@H](CC(=O)O)C(=O)N1CCC[C@H]1C(=O)N[C@H](C(=O)N[C@H](C(=O)N1CCC[C@H]1C(=O)N[C@@H](CC(=O)O)C(=O)O)C(C)C)[C@@H](C)O [ErbB2 pY1112] (HELM PEPTIDE1{P.L.Q.R.[O=C([C@H](Cc1ccc(OP(=O)(O)O)cc1)N[*:1])[*:2]].S.E.D.P.T.V.P.D}$$$$V2.0)
SH2 and PTB domains [1]; PM assay replicate # 39331, array fabrication # 39329
  Kd: 1720 nM
SH2 and PTB domains [1]; PM assay replicate # 39336, array fabrication # 39329
  Kd: 9670 nM

## CSCC[C@H](NC(=O)[C@H](Cc1ccc(OP(=O)(O)O)cc1)NC(=O)CNC(=O)[C@H](CCC(=O)O)NC(=O)[C@H](CCC(=O)O)NC(=O)[C@H](CC(=O)O)NC(=O)[C@H](CC(C)C)NC(=O)[C@H](CCC(=O)O)NC(=O)CNC(=O)[C@H](CCCNC(=N)N)NC(=O)[C@@H]1CCCN1)C(=O)N[C@H](C(=O)N1CCC[C@H]1C(=O)N[C@@H](CCSC)C(=O)N[C@@H](CCCNC(=N)N)C(=O)N[C@@H](CC(=O)O)C(=O)N[C@@H](CCCCN)C(=O)N[C@@H](CC(=O)O)C(=O)O)[C@@H](C)O [ErbB4 1150 18-mer] (HELM PEPTIDE1{P.R.G.E.L.D.E.E.G.[O=C([C@H](Cc1ccc(OP(=O)(O)O)cc1)N[*:1])[*:2]].M.T.P.M.R.D.K.D}$$$$V2.0)
[2]; protein PIK3R1-NC, FP, mean of replicate hits
  Kd: 5810 nM
VAV3 SH2 domain
  Kd: 180 nM

## CSCC[C@H](NC(=O)[C@H](CCC(=O)O)NC(=O)[C@H](CCC(=O)O)NC(=O)[C@H](Cc1ccc(OP(=O)(O)O)cc1)NC(=O)CNC(=O)[C@H](CCC(N)=O)NC(=O)[C@H](CCC(=O)O)NC(=O)[C@@H](N)CO)C(=O)N[C@@H](CCCNC(=N)N)C(=O)N[C@@H](C)C(=O)N[C@@H](Cc1ccccc1)C(=O)N[C@@H](CCC(N)=O)C(=O)N[C@@H](CC(=O)O)C(=O)O [ErbB3 1289 13-mer] (HELM PEPTIDE1{S.E.Q.G.[O=C([C@H](Cc1ccc(OP(=O)(O)O)cc1)N[*:1])[*:2]].E.E.M.R.A.F.Q.D}$$$$V2.0)
VAV3 SH2 domain
  Kd: 8400 nM

## CC[C@H](C)[C@H](NC(=O)[C@H](CC(N)=O)NC(=O)[C@H](CC(N)=O)NC(=O)[C@H](CCCCN)NC(=O)[C@H](CC(C)C)NC(=O)[C@H](Cc1ccc(OP(=O)(O)O)cc1)NC(=O)[C@H](CCC(=O)O)NC(=O)[C@H](C)NC(=O)[C@H](CCCCN)NC(=O)CNC(=O)[C@H](CC(C)C)NC(=O)[C@@H](NC(=O)[C@H](CC(N)=O)NC(=O)[C@H](C)NC(=O)[C@@H](N)Cc1ccccc1)[C@@H](C)O)C(=O)N[C@@H](CC(C)C)C(=O)N[C@@H](CO)C(=O)N[C@@H](CC(=O)O)C(=O)O [ErbB4 pY1221 (18-mer)] (HELM PEPTIDE1{F.A.N.T.L.G.K.A.E.[O=C([C@H](Cc1ccc(OP(=O)(O)O)cc1)N[*:1])[*:2]].L.K.N.N.I.L.S.D}$$$$V2.0)
SH2 and PTB domains [3]; protein PIK3R3-NC, PM assay replicate # 39307, array fabrication # 39286
  Kd: 540 nM
SH2 and PTB domains [1]; [4]
  Kd: 770 nM

## CC(C)C[C@H](NC(=O)[C@H](Cc1ccc(OP(=O)(O)O)cc1)NC(=O)[C@H](CCC(=O)O)NC(=O)[C@H](CCC(=O)O)NC(=O)[C@H](C)NC(=O)[C@@H](N)CC(=O)O)C(=O)N[C@H](C(=O)N1CCC[C@H]1C(=O)N[C@@H](CCC(N)=O)C(=O)N[C@@H](CCC(N)=O)C(=O)NCC(=O)N[C@@H](Cc1ccccc1)C(=O)N[C@@H](CC(=O)O)C(=O)O)C(C)C [ErbB2 1023 13-mer] (HELM PEPTIDE1{D.A.E.E.[O=C([C@H](Cc1ccc(OP(=O)(O)O)cc1)N[*:1])[*:2]].L.V.P.Q.Q.G.F.D}$$$$V2.0)
PIK3R3-C SH2 domain; Protein PIK3R3-C, FP saturation binding, mean over replicate hits
  Kd: 5800 nM
[2]; Protein PIK3R1-NC, FP saturation binding, mean over replicate hits
  Kd: 7140 nM

## CCN(CC)c1ccc2c(-c3ccc(C(=O)N[C@@H](CC(N)=O)C(=O)NCC(=O)N4CCC[C@H]4C(=O)N4CCC[C@H]4C(=O)N[C@@H](CCCCN)C(=O)N[C@@H](C)C(=O)N[C@@H](CCC(=O)O)C(=O)N[C@@H](CC(=O)O)C(=O)N[C@@H](CCC(=O)O)C(=O)N[C@@H](Cc4ccc(OP(=O)(O)O)cc4)C(=O)N[C@H](C(=O)N[C@@H](CC(N)=O)C(=O)N[C@@H](CCC(=O)O)C(=O)N4CCC[C@H]4C(=O)N[C@@H](CC(C)C)C(=O)N[C@@H](Cc4ccc(O)cc4)C(=O)N[C@@H](CC(C)C)C(=O)N[C@@H](CC(=O)O)C(=O)O)C(C)C)cc3C(=O)[O-])c3ccc(=[N+](CC)CC)cc-3oc2c1 [ErbB4 1202 (18-mer)] (HELM PEPTIDE1{[CCN(CC)c1ccc2c(-c3ccc(C(=O)[*:2])cc3C(=O)[O-])c3ccc(=[N+](CC)CC)cc-3oc2c1].N.G.P.P.K.A.E.D.E.[O=C([C@H](Cc1ccc(OP(=O)(O)O)cc1)N[*:1])[*:2]].V.N.E.P.L.Y.L.D}$$$$V2.0)
SH2 and PTB domains [3]; [5]
  Kd: 1180 nM
SH2 and PTB domains [3]; protein PIK3R3-NC, PM assay replicate # 39352, array fabrication # 39336
  Kd: 1720 nM
SH2 and PTB domains [1]; [4]
  Kd: 30900 nM

## CSCC[C@H](NC(=O)[C@H](Cc1ccc(OP(=O)(O)O)cc1)NC(=O)[C@H](CCC(=O)O)NC(=O)[C@H](Cc1ccc(O)cc1)NC(=O)CNC(=O)[C@@H](N)CC(C)C)C(=O)N[C@@H](CC(=O)O)C(=O)N[C@H](C(=O)NCC(=O)N[C@@H](CO)C(=O)N[C@@H](CC(=O)O)C(=O)N[C@@H](CC(C)C)C(=O)N[C@@H](CC(=O)O)C(=O)O)C(C)C [ErbB3 1224 13-mer] (HELM PEPTIDE1{L.G.Y.E.[O=C([C@H](Cc1ccc(OP(=O)(O)O)cc1)N[*:1])[*:2]].M.D.V.G.S.D.L.D}$$$$V2.0)
PIK3R3-C SH2 domain; protein PIK3R3-C, FP, mean of replicate hits
  Kd: 6110 nM

## CC(C)C[C@H](NC(=O)[C@@H]1CCCN1C(=O)[C@H](C)NC(=O)[C@@H](NC(=O)[C@H](Cc1ccc(OP(=O)(O)O)cc1)NC(=O)CNC(=O)[C@H](CC(=O)O)NC(=O)[C@@H](NC(=O)[C@@H](N)CCC(=O)O)[C@@H](C)O)C(C)C)C(=O)N[C@H](C(=O)N[C@@H](CS)C(=O)N[C@@H](CO)C(=O)N[C@@H](CC(=O)O)C(=O)O)[C@@H](C)O [ErbB2 pY1127]
SH2 and PTB domains [3]; protein PIK3R3-C, PM assay replicate # 39336, array fabrication # 39329
  Kd: 1210 nM
SH2 and PTB domains [3]; protein PIK3R3-C, PM assay replicate # 39337, array fabrication # 39329
  Kd: 2040 nM
SH2 and PTB domains [3]; protein PIK3R3-N, PM assay replicate # 39336, array fabrication # 39329
  Kd: 6.98 nM
SH2 and PTB domains [3]; protein PIK3R3-N, PM assay replicate # 39337, array fabrication # 39329
  Kd: 75.8 nM
SH2 and PTB domains [3]; protein PIK3R3-NC, PM assay replicate # 39336, array fabrication # 39329
  Kd: 100 nM
SH2 and PTB domains [3]; [5]
  Kd: 15.1 nM
SH2 and PTB domains [3]; protein PIK3R3-NC, PM assay replicate # 39603, array fabrication # 39392
  Kd: 50 nM
